Measured values taken from US9732094B2, “Arylquinazolines” (Merck Patent GmbH, priority 2013, dated 2017).
Where two headings read alike, the source gives them in different places.

Columns and labels:
[1] = target: DNA-PK (Homo sapiens (Human), UniProt P78527); test: DNA-PK assay (biochemical), flashplate 33P-ATP kinase assay
Protocol: A) DNA-PK Assay (Biochemical)
The kinase assay was carried out in streptavidin-coated […] microtitre flashplates. […] The reaction was stopped using 50 μl/well of 200 mM EDTA. After incubation for a further 30 min at room temperature, the liquid was removed. Each well was washed three times with 100 μl of 0.9% saline solution. A nonspecific reaction (blank value) was determined using 10 μM of an innate kinase inhibitor. The radioactivity measurement was carried out using a TopCount. IC50 values were calculated in RS1.

[2] = target: DNA-PK phosphorylation at serine 2056 (Homo sapiens (Human), UniProt P78527); test: DNA-PK phosphorylation at serine 2056 (cellular), bleomycin-treated HCT116 cells, ELISA; type: cell-based; settings: read-out: IC50 pDNA-PK
Protocol: HCT116 cells were cultivated at 37° C. and 10% CO2 in MEM alpha medium with 10% of foetal calf serum and 2 mM glutamine. The cells were detached from the base of the culture vessels with the aid of trypsin/EDTA, centrifuged off in centrifuge tubes, taken up in fresh medium, and the cell density was determined. 100,000 cells were sown in 1 ml of culture medium per cavity of a 24-well cell culture plate and cultivated overnight. Next day, 10 μM bleomycin (DNA intercalator and inductor of DNA double-strand breaks) and test substances in fresh culture medium were added to the cells, and these were cultivated for a further six hours. […] The 96-well ELISA plates were subsequently treated with a detection antibody (Abcam ab79444: total DNA-PK) and a streptavidin-HRP conjugate. The development of the enzymatic reaction was carried out with the aid of a chemiluminescent reagent, the chemiluminescence was measured with the aid of a Mithras LB940. The signals with the phospho-DNA-PK-specific antibody were standardised to the signal with the antibody against the total protein DNA-PKc. […] The DMSO control was used as blank.

[3] = target: Kv11.1 (hERG) (Homo sapiens (Human), UniProt Q12809); test: Kv11.1 (hERG) ion channel activity (patch clamp assay), HEK293 cells transfected with hERG gene; settings: patch clamp, HEK293 transfected with hERG gene
Kv11.1 (hERG), sequence (Q12809 whole entry): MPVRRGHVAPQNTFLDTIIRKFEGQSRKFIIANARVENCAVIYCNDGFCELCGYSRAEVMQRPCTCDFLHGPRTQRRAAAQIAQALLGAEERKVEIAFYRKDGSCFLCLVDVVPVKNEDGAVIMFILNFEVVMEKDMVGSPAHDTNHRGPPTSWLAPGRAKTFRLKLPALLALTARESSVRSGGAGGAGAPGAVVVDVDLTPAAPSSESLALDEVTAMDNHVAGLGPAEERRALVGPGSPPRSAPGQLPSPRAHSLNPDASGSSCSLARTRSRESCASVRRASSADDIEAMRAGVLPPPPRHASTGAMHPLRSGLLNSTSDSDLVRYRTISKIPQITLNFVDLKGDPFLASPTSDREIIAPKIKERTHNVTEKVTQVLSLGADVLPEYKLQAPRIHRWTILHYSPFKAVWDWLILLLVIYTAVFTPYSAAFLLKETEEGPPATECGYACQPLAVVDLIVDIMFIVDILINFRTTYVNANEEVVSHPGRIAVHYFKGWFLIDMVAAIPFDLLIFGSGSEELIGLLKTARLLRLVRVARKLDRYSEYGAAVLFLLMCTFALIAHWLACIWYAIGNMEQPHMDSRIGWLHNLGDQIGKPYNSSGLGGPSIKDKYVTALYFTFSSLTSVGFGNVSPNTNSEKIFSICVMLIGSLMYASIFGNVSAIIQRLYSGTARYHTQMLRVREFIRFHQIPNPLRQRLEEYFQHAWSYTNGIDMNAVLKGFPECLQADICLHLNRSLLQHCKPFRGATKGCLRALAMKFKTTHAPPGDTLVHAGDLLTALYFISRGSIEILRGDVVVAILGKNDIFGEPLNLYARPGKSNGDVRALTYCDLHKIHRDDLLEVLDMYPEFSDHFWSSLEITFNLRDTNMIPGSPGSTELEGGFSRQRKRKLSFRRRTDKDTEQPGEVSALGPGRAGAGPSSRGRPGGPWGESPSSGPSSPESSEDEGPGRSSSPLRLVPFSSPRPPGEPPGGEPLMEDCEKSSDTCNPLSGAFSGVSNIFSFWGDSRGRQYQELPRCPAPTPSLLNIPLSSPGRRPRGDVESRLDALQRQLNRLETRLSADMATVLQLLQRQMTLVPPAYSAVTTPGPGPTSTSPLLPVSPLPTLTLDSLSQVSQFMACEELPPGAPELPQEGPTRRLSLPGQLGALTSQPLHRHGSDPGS
Protocol: C) Kv11.1 (hERG) Ion Channel Activity (Patch Clamp Assay)
The patch-clamp measurement was carried out at room temperature in whole-cell configuration on human embryonic kidney cells (HEK293) which have been transfected in a stable manner with the hERG gene.
The whole-cell configurations were carried out using an automated patch clamp device (Patchliner™, Nanion Technologies, Munich). […] The glass chip has a hole of defined size to which the cell is transferred into the Gigaseal by application of a reduced pressure and brought into the whole-cell configuration. Buffer, cell suspension and test substances were added to microchannels of the chip using a Teflon-coated pipette. The cells were clamped to a holding potential of −80 mV. For measurement of substance-promoted inhibition of the Kv11.1 channel, the following voltage protocol was applied at 10-second intervals: 51 ms/−80 mV, 500 ms/+40 mV, 500 ms/−40 mV, 200 ms/−80 mV. The leakage current is subtracted by means of the P4 method. The cells were resuspended in extracellular buffer (EC) and applied to the chip. After the cell had been collected, the seal was improved by addition of a seal enhancer buffer. As soon as the whole-cell configuration had been reached, the seal enhancer buffer was washed out and replaced by extracellular buffer. The measurement started in EC for 1.5 min. DMSO (vehicle control, 0.1% of DMSO) was then applied, and the control current was recorded for 3 min. The test substance was subsequently added twice in the same concentration, and the potassium current was measured for 3.5 min in each case.
The reference substance used was the Kv11.1 (hERG) ion channel blocker quinidine. The effects of test substances and quinidine were standardised to the associated vehicle control. The effect on the Kv11.1 (hERG) channel activity was assessed from the potassium current at −40 mV. For the calculation, the current was evaluated for the respective final trace.
During the measurement, an aliquot of the test substance was taken for concentration determination. The sample was measured immediately by HPLC, and the final concentration was determined from a calibration curve.

[4] = cellular, HCT116 cells, 10 μM bleomycin, six hours
[5] = cellular DNA-PK phosphorylation at serine 2056, HCT116

## OC(c1cccnn1)c1cc(-c2ncnc3cc(N4CCOCC4)ccc23)c(F)cc1Cl (single isomer, unassigned) [Example 30, [2-Chloro-4-fluoro-5-(7-morpholin-4-yl-quinazolin-4-yl)phenyl]-pyridazin-3-ylmethanol]
[1]; enzymatic, 5 μM ATP
  IC50: < 3 nM
[2]; [4]
  IC50: < 500 nM

## COc1ccc(C(O)c2cc(-c3ncnc4cc(N5CCOCC5)sc34)c(F)cc2Cl)nn1 (single isomer, unassigned) [Example 127, [2-Chloro-4-fluoro-5-(6-morpholin-4-ylthieno[3,2-d}-pyrimidin-4-yl)-phenyl]-(6-methoxy-pyridazin-3-yl)-methanol]
[1]; enzymatic, 5 μM ATP
  IC50: 3 to 7 nM
[2]; [4]
  IC50: 5000 to 10000 nM

## COc1ccc(C(O)c2cc(-c3ncnc4cc(N5CCOCC5)ccc34)c(F)cc2F)nn1 (single isomer, unassigned) [Example 129, [2,4-Difluoro-5-(7-morpholin-4-yl-quinazolin-4-yl)-phenyl]-(6-methoxy-pyridazin-3-yl)-methanol]
[3]; Ki [Kv1.11 hERG]
  Ki: 15000 to 25000 nM

## COc1ccc(C(O)c2cc(-c3ncnc4cc(N5CCOCC5)ccc34)c(F)cc2F)nn1 (single isomer, unassigned) [Example 130, [2,4-Difluoro-5-(7-morpholin-4-yl-quinazolin-4-yl)-phenyl]-(6-methoxy-pyridazin-3-yl)-methanol]
[3]; read-out: Ki [Kv1.11 hERG]
  Ki: > 25000 nM

## COc1nccnc1C(O)c1ccc(F)c(-c2ncnc3cc(N4CCOCC4)cc(F)c23)c1 (single isomer, unassigned) [Example 253, [4-Fluoro-3-(5-fluoro-7-morpholin-4-yl-quinazolin-4-yl)-phenyl]-(3-methoxy-pyrazin-2-yl)-methanol]
[1]; biochemical DNA-PK assay
  IC50: 7 to 30 nM
[2]; [5]
  IC50: 5000 to 10000 nM

## Cc1nccnc1C(O)c1cc(-c2ncnc3cc(N4CCOCC4)ccc23)c(F)cc1F (stereo not drawn) [Example 85]
[1]; enzymatic, 5 μM ATP
  IC50: < 3 nM
[2]; [4]
  IC50: 500 to 5000 nM

## OC(c1ccc(F)c(-c2ncnc3cc(N4CCOCC4)sc23)c1)c1nccs1 (stereo not drawn) [Example 146, [4-fluoro-3-(6-morpholin-4-ylthieno[3,2-d]pyrimidin-4-yl)phenyl]thiazol-2-ylmethanol]
[2]; Table 5, HCT116 cells
  IC50: 500 to 5000 nM

## CC(O)(c1cncc(-c2ncnc3cc(N4CCOCC4)ccc23)c1)c1nccs1 (stereo not drawn) [Example 151, 1-[5-(7-Morpholin-4-ylquinazolin-4-yl)-pyridin-3-yl]-1-thiazol-2-ylethanol]
[1]; Table 5
  IC50: > 30 nM

## CC(O)(c1cc(-c2ncnc3cc(N4CCOCC4)ccc23)ccn1)c1nccs1 (stereo not drawn) [Example 153, 1-[4-(7-Morpholin-4-ylquinazolin-4-yl)-pyridin-2-yl]-1-thiazol-2-ylethanol]
[1]; Table 5
  IC50: > 30 nM

## Cc1ccc(C(C)(O)c2nccs2)cc1-c1ncnc2cc(N3CCOCC3)ccc12 (stereo not drawn) [Example 155, 1-[4-methyl-3-(7-morpholin-4-yl-quinazolin-4-yl)-phenyl)-1-thiazol-2-ylethanol]
[1]; Table 5
  IC50: > 30 nM

## CC(O)(c1cc(-c2ncnc3cc(N4CCOCC4)ccc23)cs1)c1nccs1 (stereo not drawn) [Example 156, 1-[4-(7-Morpholin-4-ylquinazolin-4-yl)-thiophen-2-yl]-1-thiazol-2-ylethanol]
[1]; Table 5
  IC50: > 30 nM

## OC(c1ccc(-c2ncnc3cc(N4CCOCC4)ccc23)s1)c1nccs1 (stereo not drawn) [Example 160, [5-(7-Morpholin-4-ylquinazolin-4-yl)-thiophen-2-yl]-thiazol-2-yl-methanol]
[1]; Table 5
  IC50: > 30 nM

## CC(O)(c1nccs1)c1cccc(-c2ncnc3cc(N4CCOCC4)ccc23)c1F (stereo not drawn) [Example 162, 1-[2-Fluoro-3-(7-morpholin-4-yl-quinazolin-4-yl)-phenyl]-1-thiazol-2-ylethanol]
[1]; Table 5
  IC50: > 30 nM

## OC(c1csc(-c2ncnc3cc(N4CCOCC4)ccc23)c1)c1nccs1 (stereo not drawn) [Example 164, [5-(7-Morpholin-4-ylquinazolin-4-yl)-thiophen-3-yl]-thiazol-2-yl-methanol]
[1]; Table 5
  IC50: > 30 nM

## OC(c1cc(F)cc(-c2ncnc3cc(N4CCOCC4)ccc23)c1)c1nccs1 (stereo not drawn) [Example 169, [3-Fluoro-5-(7-morpholin-4-yl-quinazolin-4-yl)-phenyl]thiazol-2-yl-methanol]
[1]; Table 5
  IC50: 7 to 30 nM
[2]; Table 5, HCT116 cells
  IC50: 10000 to 30000 nM

## OC(c1nccs1)c1cc(-c2ncnc3cc(N4CCOCC4)ccc23)ccc1F (stereo not drawn) [Example 170, [2-Fluoro-5-(7-morpholin-4-yl-quinazolin-4-yl)-phenyl]thiazol-2-yl-methanol]
[1]; Table 5
  IC50: 7 to 30 nM
[2]; Table 5, HCT116 cells
  IC50: 5000 to 10000 nM

## OC(c1cccc(-c2ncnc3cc(N4CCOCC4)ccc23)c1)(c1nccs1)C(F)(F)F (stereo not drawn) [Example 172, 2,2,2-Trifluoro-1-[3-(7-morpholin-4-yl-quinazolin-4-yl)-phenyl]-1-thiazol-2-ylethanol]
[1]; Table 5
  IC50: 7 to 30 nM
[2]; Table 5, HCT116 cells
  IC50: 10000 to 30000 nM

## c1nc(N2CCCCC2)c2scc(N3CCOCC3)c2n1 [Example 174, 7-Morpholin-4-yl-4-piperidin-1-yl-thieno[3,2-d}-pyrimidine]
[1]; Table 5
  IC50: 7 to 30 nM
[2]; Table 5, HCT116 cells
  IC50: 10000 to 30000 nM

## COC(c1ccc(F)c(-c2ncnc3cc(N4CCOCC4)ccc23)c1)c1nccs1 (stereo not drawn) [Example 175, 4-[2-Fluoro-5-(methoxy-thiazol-2-ylmethyl)phenyl]-7-morpholin-4-yl-quinazoline]
[1]; Table 5
  IC50: > 30 nM

## COC(c1ccc(F)c(-c2ncnc3cc(N4CCOCC4)ccc23)c1)c1nccs1 (stereo not drawn) [Example 176, 4-[2-Fluoro-5-(-methoxy-thiazol-2-ylmethyl)phenyl]-7-morpholin-4-yl-quinazoline]
[1]; Table 5
  IC50: 7 to 30 nM

## OC(c1cccc(-c2ncnc3cc(N4CCOCC4)sc23)c1)c1nccs1 (stereo not drawn) [Example 182, [3-(6-Morpholin-4-ylthieno[3,2-d}-pyrimidin-4-yl)-phenyl]thiazol-2-yl-methanol]
[1]; Table 5
  IC50: 7 to 30 nM
[2]; Table 5, HCT116 cells
  IC50: 5000 to 10000 nM

## OC(c1cncc(-c2ncnc3cc(N4CCOCC4)ccc23)c1)c1nccs1 (stereo not drawn) [Example 183, [5-(7-Morpholin-4-ylquinazolin-4-yl)-pyndin-3-yl]thiazol-2-ylmethanol]
[1]; Table 5
  IC50: 7 to 30 nM

## OC(c1cncc(-c2ncnc3cc(N4CCOCC4)ccc23)c1)c1nccs1 (stereo not drawn) [Example 184, [5-(7-Morpholin-4-ylquinazolin-4-yl)-pyridin-3-yl]thiazol-2-ylmethanol]
[1]; Table 5
  IC50: 7 to 30 nM

## OC(c1ccc(F)c(-c2ncnc3cc(N4CCOCC4)ccc23)c1)c1nccs1 (stereo not drawn) [Example 212, [4-Fluoro-3-(7-morpholin-4-yl-quinazolin-4-yl)-phenyl]thiazol-2-ylmethanol]
[1]; enzymatic, 5 μM ATP
  IC50: < 3 nM
[2]; [4]
  IC50: 10000 to 30000 nM

## OC(c1ccc(F)c(-c2ncnc3cc(N4CCOCC4)ccc23)c1)c1nccs1 (stereo not drawn) [Example 213, [4-Fluoro-3-(7-morpholin-4-yl-quinazolin-4-yl)-phenyl]thiazol-2-ylmethanol]
[1]; enzymatic, 5 μM ATP
  IC50: < 3 nM
[2]; [4]
  IC50: 5000 to 10000 nM

## COc1nccnc1C(O)c1cc(-c2ncnc3cc(N4CCOCC4)cc(F)c23)c(F)cc1Cl (stereo not drawn) [Example 250, [2-Chloro-4-fluoro-5-(5-fluoro-7-morpholin-4-yl-quinazolin-4-yl)-phenyl]-(3-methoxy-pyrazin-2-yl)-methanol]
[2]; [5]
  IC50: < 500 nM

## COc1nccnc1C(O)c1cc(-c2ncnc3cc(N4CCOCC4)cc(F)c23)c(F)cc1Cl (stereo not drawn) [Example 266, [2-Chloro-4-fluoro-5-(5-fluoro-7-morpholin-4-yl-quinazolin-4-yl)-phenyl]-(3-methoxy-pyrazin-2-yl)-methanol]
[2]; [5]
  IC50: < 500 nM

## Cn1cnc2ncnc(C(O)c3cc(-c4ncnc5cc(N6CCOCC6)ccc45)c(F)cc3F)c21 (stereo not drawn) [Example 386, [2,4-Difluoro-5-(7-morpholin-4-yl-quinazolin-4-yl)-phenyl]-(7-methyl-7H-purin-6-yl)-methanol]
[1]; biochemical DNA-PK assay
  IC50: 3 to 7 nM
[2]; [5]
  IC50: 5000 to 10000 nM

## Cn1cnc2ncnc(C(O)c3cc(-c4ncnc5cc(N6CCOCC6)ccc45)c(F)cc3F)c21 (stereo not drawn) [Example 431, [2,4-Difluoro-5-(7-morpholin-4-yl-quinazolin-4-yl)-phenyl]-(7-methyl-7H-purin-6-yl)-methanol]
[1]; biochemical DNA-PK assay
  IC50: 7 to 30 nM
[2]; [5]
  IC50: 500 to 5000 nM

## OC(c1cc(-c2ncnc3cc(N4CCOCC4)ccc23)c(F)cc1F)c1ncnc2ccoc12 (stereo not drawn) [Example 445, [2,4-Difluoro-5-(7-morpholin-4-yl-quinazolin-4-yl)-phenyl]furo[3,2-d}-pyrimidin-4-yl-methanol]
[1]; biochemical DNA-PK assay
  IC50: 3 to 7 nM
[2]; [5]
  IC50: < 500 nM

## OC(c1cc(-c2ncnc3cc(N4CCOCC4)ccc23)c(F)cc1F)c1ncnc2ccoc12 (stereo not drawn) [Example 446, [2,4-Difluoro-5-(7-morpholin-4-yl-quinazolin-4-yl)-phenyl]furo[3,2-d}-pyrimidin-4-yl-methanol]
[1]; biochemical DNA-PK assay
  IC50: < 3 nM
[2]; [5]
  IC50: 500 to 5000 nM

## OC(c1ccc(F)c(-c2ncnc3cc(N4CCOCC4)ccc23)c1)c1nccnc1I (stereo not drawn) [Example 462, [4-Fluoro-3-(7-morpholin-4-yl-quinazolin-4-yl)-phenyl]-(3-iodo-pyrazin-2-yl)-methanol]
[1]; biochemical DNA-PK assay
  IC50: < 3 nM
[2]; [5]
  IC50: < 500 nM
